Usually melting point stands for the temperature, or range, at which the solid turns liquid.

Compound `COC(=O)c1cnn(C)c1C(=O)Nc1ccn2nc(-c3ccccc3)nc2c1` returned a melting point of 243 to 247 °C.

As for `CC1(C)C(C=C(C#N)c2ccccc2)C1C(=O)O` (stereo not drawn), the melting point fell in the range of 186 to 188 °C. For the compound `O=CNC1=CCc2cc(Cl)ccc21`, the melting point is 155 °C.

Turning to `CCOC(Cc1ccc(OCc2nc3ccc(OC)cc3n2C)cc1)C(=O)OC` (stereo not drawn), the melting point lay in the range of 88 to 92 °C.

The compound `O=C1c2ccccc2-c2c1c(-n1ccnc1)nc1ccc(Br)cc21` had a melting point of 283 to 285 °C. Consider `Cc1cc(-c2nc(-c3ccncc3)nn2C)cc(C)n1`, for which the melting point fell in the range of 176 to 178 °C. Next, `O=C(O)c1cccc(OCCNC(=O)C2Cc3ccccc3N2S(=O)(=O)c2ccc(-c3cccc(C(F)(F)F)c3)cc2)c1` (stereo not drawn): 85 to 92 °C.

Turning to `O=C(O)C(CSc1nccs1)CS(=O)(=O)c1ccc(-c2ccc(Cl)cc2)cc1` (stereo not drawn), the melting point lay within 152 to 154 °C. Take `CN1CCN(c2ncnc3c([N+](=O)[O-])cccc23)C1=O`: the melting point was 207 to 210 °C. The result for `O=C(NCc1ccc2c(c1)OCO2)c1ccc2[nH]c(=O)n(Cc3ccccc3)c(=O)c2c1` reads 176 °C. Next, `O=[N+]([O-])c1cnn(-c2c(Cl)cc(Cl)cc2Cl)c1Cl`: 78 to 84 °C; `CC1(Cc2ccccc2)Cc2cc(O)c(Cl)c(Cl)c2C1=O` (stereo not drawn): 219 to 221 °C; `CN(C)c1ccc(NC(=O)N(Cc2ccccc2)C[C@H]2CCC[C@H](CN(Cc3ccccc3)C(=O)Nc3ccc(N(C)C)cc3)C2)cc1` (relative stereo): 129 to 133 °C. The result for `O=C(O)Cn1c(Cc2ccccc2)ccc1-c1ccccc1` reads 137 to 139 °C; that for `O=S1(=O)N=C2CCCN2c2ccc(O)cc21`, greater than 300 °C; that for `CCCCCCCNC(=O)Nc1ccc(-n2cccn2)cc1C(=O)NCC1CCN(C(c2ccccc2)c2ccccc2)CC1`, 176 to 178 °C. The compound `CS(=O)(=O)c1ccc(/C(=C\C2CCCCC2)C(=O)O)cc1` displayed a melting point of 195 to 197 °C. `COC(=O)C(C)(C)Cc1ccc(OCc2oc(-c3ccc(C(F)(F)F)cc3)cc2C(=O)O)cc1` yielded a melting point of 153 to 155 °C. `C=CCN(CC=C)C(=O)n1cnc(S(C)(=O)=O)n1` gave a melting point of 52 to 54 °C. `CC(C#N)CC(=O)c1cccc(Cl)c1` (stereo not drawn) gave a melting point of 72 to 75 °C. Next, `CCOC(=O)C1=C(C)NC(CO)=C(C(=O)OCC)C1c1cccc([N+](=O)[O-])c1` (stereo not drawn): 141 to 142 °C. In turn, `CC(C)NCC(O)COc1cccc(-c2oc3ccccc3c2C(=O)c2ccc(Cl)cc2)c1` (stereo not drawn) had a melting point of 53 to 60 °C. The result for `CCC(=O)OC1C(=O)N(c2nnc(C(C)(C)C)s2)C(=O)N1C` (stereo not drawn) reads 176 °C; that for `CC(C)(C)COC(=O)COc1ccc(C(=O)CN2CCN(c3ccncc3)CC2)cc1`, 88 to 90 °C. Next, `C=C1CCC2(c3c[nH]cn3)Cc3ccccc3C12` (stereo not drawn): 167 to 174 °C; `Cc1cccc(-c2c(=O)[nH]c3cc(Cl)c(Cl)cc3[n+]2[O-])c1`: 260 to 262 °C; `N#Cc1cccnc1N1CCN(Cc2nc3ccccc3[nH]2)CC1`: 208 to 210 °C. Consider `CC1(C)NC(=O)N(c2cc(C#N)c(C#N)c(C(F)(F)F)c2)C1=O`, for which the melting point was in the range of 159 to 160 °C. Next, `C=C(c1c(C#N)nn(-c2c(Cl)cc(C(F)(F)F)cc2Cl)c1N)C(F)(F)F`: 147 to 148 °C; `N[C@@H](CO)C(=O)NC(=O)N(CCCl)N=O`: 117 to 120 °C. The result for `C[C@@H](N1CC(=O)N(c2ccc(OCC(F)(F)C(F)F)cc2)CC1=O)[C@@]1(c2ccc(F)cc2F)CO1` reads 155 to 156 °C; that for `CCn1nc(C2CC2)c(C(=O)O)c1Cc1ccc(-c2ccccc2S(=O)(=O)NC(=O)c2ccccc2)cc1`, 217 °C.

`CN(C)C(=O)Nc1cc(C(F)(F)F)on1` came in with a melting point of 126 °C.

In turn, `N=C(NC=Cc1ccc([N+](=O)[O-])cc1)c1cccc(N)c1` displayed a melting point of 146 to 148 °C. For the compound `Cc1nc2c(s1)N(C(=O)c1cnoc1C)CCCC2`, the melting point lay within 117 to 118 °C. On to `COc1cc(CCN2CCN(c3nsc4ccccc34)CC2)c([N+](=O)[O-])cc1OC`, for which the melting point turned out to be 135 °C.

The compound `Cc1cc2c(=O)c3ccccc3oc2c2c1OC(C(=O)O)C2` (stereo not drawn) registered a melting point of 292 to 295 °C. Turning to `CCOC(=O)C(C)c1ccc2c(c1)sc1nc(=O)cc(-c3ccccc3)n12` (stereo not drawn), the melting point lay in the range of 127 to 131 °C.

Regarding `CCCc1nn(C)c2c(=O)[nH]c(Cc3ccc(C(=O)O)cc3)nc12`, the melting point lay in the range of 292 to 293 °C. The result for `CCOCc1cc2cc(Cl)ccc2oc1=Nc1ccccc1` reads 58 to 59 °C. For the compound `CCCCc1ncc(/C=C(\Cc2cccs2)C(=O)O)n1Cc1ccc(C(=O)O)cn1`, the melting point was in the range of 212 to 213 °C. As to `Nc1cccc2c1C(=O)N(c1ccc(OC(F)(F)F)cc1)C2=O`, the melting point fell in the range of 161 to 162 °C. Next, `COc1ccc(-c2nc(C(=O)OC(C)(C)C)c(-c3ccncc3)[nH]2)cc1`: 211 to 212 °C; `COc1ccccc1N1CCN(c2cc3ccccc3cn2)CC1`: 112 to 114 °C. For `O=C(O)c1ccc(-c2ccc3cc(CCCO)c(C45CC6CC(CC(C6)C4)C5)cc3c2)cc1`, the melting point fell in the range of 268 to 269 °C. Next, `CC(C)C1C(=O)C(c2ccc(S(C)(=O)=O)cc2)=C1c1ccccc1` (stereo not drawn): 98 °C; `CCn1c(=O)c2cc(C(=O)O)cn2c2ccccc21`: 314 to 316 °C.

Compound `CC(C)c1ccc([N+](=O)[O-])c(C(C)C)c1NC(=O)CN1CCN(CCSc2nc3ccccc3o2)CC1` had a melting point of 143 to 145 °C. The compound `COCOc1ccc(O)c(CC#N)c1` showed a melting point of 68 to 69 °C.

The compound `COC(=O)C(=CO)c1ccccc1` returned a melting point of 33.5 to 35.5 °C. The result for `c1ccc(-c2nc(-c3ccccc3)c(-c3ccccc3)s2)cc1` reads 84 to 85.5 °C; that for `CCCC(=O)OC1(C(C)=O)C(C)CC2C3CCC4=CC(=O)C=CC4(C)C3(Cl)C(=O)CC21C` (stereo not drawn), 154 to 155 °C.

`CNc1nc(Nc2ccc(Cl)c(Cl)c2)ncc1NC(=O)OC` yielded a melting point of 303 to 305 °C. The compound `O=C(Nc1nc[nH]n1)c1ccc(-c2ccc3nnn(Cc4ccc5ncccc5c4)c3n2)cc1Cl` returned a melting point of 286 to 288 °C.

As to `O=Cc1ccn(C2=CC3=C(CC2)CCc2[nH]c(=O)c(=O)[nH]c23)c1`, the melting point was greater than 250 °C.

Regarding `CCOC(=O)c1c(-c2cccc(F)c2)c(Cl)n2c1CNCC2`, the melting point lay in the range of 96 to 98 °C.

The compound `CC(C)(C)c1nc(C(=O)c2nccs2)nc(C(C)(C)C)c1O` had a melting point of 181 to 184 °C.

In the case of `C[C@H](O)c1nnc(-c2ccc3occ(-c4ccc(S(C)(=O)=O)cc4)c3c2)o1`, the melting point is 175 to 176 °C.

Consider `CCOC(=O)CCCOc1ccc(-c2cc(C#N)c(=O)[nH]c2C)cc1`, for which the melting point lay in the range of 222 to 224 °C. `Cn1cnc(S(=O)(=O)N2CCSCC2)c1` had a melting point of 154 to 155 °C. Next, `COC(=O)c1sc2c(c1N=C1CCCN1C)c1ccccc1c(=O)n2-c1ccccc1C`: 209 to 211 °C; `COC(=O)c1ccc(OCCCOc2ccccc2)cc1O`: 90 to 92 °C. Next, `CC(=O)N(C)C(=N[N+](=O)[O-])N(Cc1cnc(Cl)s1)C(C)=O`: 72 to 74 °C; `N#Cc1cccc(OC(=O)C(=O)Oc2cccc(C#N)c2)c1`: 187 to 190 °C. With `CC(C)(C)[Si](C)(C)O[C@@H]1c2sccc2[C@]2(O[Si](C)(C)C(C)(C)C)C[C@H]1OC2=O`, the melting point lay in the range of 133 to 137 °C. Compound `Cc1nc2cccc(OCC(C)(C)NC(=O)CC(C)C)c2c(N)c1C(=O)O` yielded a melting point of 195 to 198 °C. The result for `CN1C(=O)C(C2OC(=O)c3ccccc32)N(C)C(=O)C1Cc1ccccc1` (stereo not drawn) reads 225 °C; that for `Cc1cc(NC(=O)c2ccc(F)cc2)c(C)cc1N`, 174 to 176 °C; that for `COc1ccc(Cn2c(=O)oc(=O)c3cc(Cl)cnc32)cc1`, 173 °C. The result for `COc1cc(N2CCN(CCC3CN(C)C(=O)O3)CC2)cc(OC)c1OC` (stereo not drawn) reads 86 to 88 °C; that for `O=C(NC(Cc1ccc(OCc2ccccc2)cc1)C(=O)O)c1cn2c(-c3ccc(Cl)cc3)cccc2n1` (stereo not drawn), 218 °C. As for `CC1(C)CC(=O)c2cc(C#N)c(N3CCN(c4ccccc4)CC3)nc2C1`, the melting point was in the range of 167 to 170 °C. Next, `CC1(C(=O)O)CCc2cc(O)c(C(C)(C)C)cc2O1` (stereo not drawn): 218 to 221 °C; `CC(=O)NC[C@H]1CN(c2ccc(N3CCC(=C(C#N)c4cccs4)CC3)c(F)c2)C(=O)O1`: 260 to 263 °C; `Cc1cc(Nc2ccccc2C(=O)N2CCCCC2)ccn1`: 93 to 95 °C.

The compound `CC(=O)N1CCn2c1c(-c1ccccc1)c1ncccc1c2=O` gave a melting point of 229 to 231 °C. On to `COc1ccc2c(c1)C13CCN(C#N)C(C2)C1(OC)CCC(=O)C3` (stereo not drawn), for which the melting point fell in the range of 172 to 176 °C. Next, `CNCC(O)c1ccc(Br)cc1` (stereo not drawn): 91.5 to 93.7 °C; `CNC(=O)c1cnn(-c2cccc(Cl)c2)c1Cl`: 163 to 165 °C; `COC(=O)c1nccnc1Nc1ccc(Cl)cc1`: 135 to 136 °C. The result for `Cc1ccccc1COc1cccnc1NC(=S)Nc1ccc(Cl)cc1` reads 181 to 183 °C. The result for `COCC(=O)Nc1c(C(=O)CC(=O)Nc2nccs2)cccc1C(F)(F)F` reads 152 °C. `CCOC(=O)CN(CCc1ccccc1)C(=O)[C@@H]1C[C@@H](SC(C)=O)CN1S(=O)(=O)c1ccc2ccccc2c1` returned a melting point of 119 to 120 °C.

Regarding `COc1ccc(/C=C/S(=O)(=O)CS(=O)(=O)/C=C/c2ccc(OC)c(O)c2)cc1O`, the melting point fell in the range of 148 to 150 °C. The result for `COC(=O)CC(=O)c1ncccc1Cl` reads 113 to 116 °C. Next, `CC(C)CC1(C)C(=O)N(Cc2ccccc2)CCN1Cc1ccccc1` (stereo not drawn): 98 to 101 °C. On to `OC1CCCCC1c1ccccc1` (stereo not drawn), for which the melting point was in the range of 55 to 57 °C. Next, `N#Cc1ccc(CC23CCCN2C(=O)N(c2cc(Cl)cc(Cl)c2N)C3=O)cc1` (stereo not drawn): 122 °C.

These data come from a melting point compilation (Tetko et al.; mined from patent text by program, amines drawn as free bases though some values may be those of a salt).
